Our source for the EC50 values is patent US20260048047A1, “SMALL-MOLECULE ACTIVATORS OF MYCOBACTERIUM TUBERCULOSIS ADENYLYL CYCLASE” (priority 2022, published 2026).

In the assay the test system is M. tuberculosis. Kind of assay: Extracellular activity against M. tuberculosis in cholesterol media (Alamar Blue reduction assay). The assay is classed as cell-based, Mycobacterium tuberculosis. The note with it: Mycobacterium tuberculosis, 240 h, 7H12-Cholesterol media, 10 days; read-out: Cholesterol broth: alamar blue--EC50.

The structures appear in SMILES notation.

Consider `Cn1ncnc1CC(=O)N1CC2CC1CC2c1nc(-c2ccc(Cl)cc2)no1` (centres unmarked) [Compound 200, 1-(5-(3-(4-chlorophenyl)-1,2,4-oxadiazol-5-yl)-2-azabicyclo[2.2.1]heptan-2-yl)-2-(1-methyl-1H-1,2,4-triazol-5-yl)ethan-1-one], for which the EC50 was found to be 0.37 µM. On to `Cn1ncnc1CC(=O)N1CC2CC1CC2c1nc(-c2ccc(Cl)c(F)c2)no1` (centres unmarked) [Compound 201, 1-(5-(3-(4-chloro-3-fluorophenyl)-1,2,4-oxadiazol-5-yl)-2-azabicyclo[2.2.1]heptan-2-yl)-2-(1-methyl-1H-1,2,4-triazol-5-yl)ethan-1-one], for which the EC50 was found to be 0.2 µM. For the compound `Cn1ncnc1CC(=O)N1CC2CC1CC2c1nc(-c2ccc(Cl)cc2F)no1` (centres unmarked) [Compound 204, 1-(5-(3-(4-chloro-2-fluorophenyl)-1,2,4-oxadiazol-5-yl)-2-azabicyclo[2.2.1]heptan-2-yl)-2-(1-methyl-1H-1,2,4-triazol-5-yl)ethan-1-one], the half-maximal effective concentration (EC50) came to 0.74 µM. As for `Cn1ncnc1CC(=O)N1CC2CC1CC2c1nc(-c2ccc(F)cc2)no1` (centres unmarked) [Compound 205, 1-(5-(3-(4-fluorophenyl)-1,2,4-oxadiazol-5-yl)-2-azabicyclo[2.2.1]heptan-2-yl)-2-(1-methyl-1H-1,2,4-triazol-5-yl)ethan-1-one], the figure is 1.6 µM. As for `Cc1noc(CC(=O)N2CC3CC(C2)C3c2nc(-c3ccc(Cl)c(Cl)c3)no2)n1` (centres unmarked) [Compound 206, 1-(6-(3-(3,4-dichlorophenyl)-1,2,4-oxadiazol-5-yl)-3-azabicyclo[3.1.1]heptan-3-yl)-2-(3-methyl-1,2,4-oxadiazol-5-yl)ethan-1-one], the figure is greater than 10 µM; as for `Cc1noc(CC(=O)N2CC3CC(C2)C3c2nc(C3CCC(F)(F)CC3)no2)n1` (centres unmarked) [Compound 207, 1-(6-(3-(4,4-difluorocyclohexyl)-1,2,4-oxadiazol-5-yl)-3-azabicyclo[3.1.1]heptan-3-yl)-2-(3-methyl-1,2,4-oxadiazol-5-yl)ethan-1-one], greater than 10 µM; as for `Cc1noc(CC(=O)N2CC3CC(C2)C3c2nc(-c3ccc(F)c(F)c3)no2)n1` (centres unmarked) [Compound 208, 1-(6-(3-(3,4-difluorophenyl)-1,2,4-oxadiazol-5-yl)-3-azabicyclo[3.1.1]heptan-3-yl)-2-(3-methyl-1,2,4-oxadiazol-5-yl)ethan-1-one], no less than 10 µM. As for `Cc1noc(CC(=O)N2CC3CC(C2)C3c2nc(-c3ccc(F)cc3)no2)n1` (centres unmarked) [Compound 209, 1-(6-(3-(4-fluorophenyl)-1,2,4-oxadiazol-5-yl)-3-azabicyclo[3.1.1]heptan-3-yl)-2-(3-methyl-1,2,4-oxadiazol-5-yl)ethan-1-one], the figure is no less than 10 µM; as for `Cc1nocc1CC(=O)N1CC2CC(C1)C2c1nc(-c2ccc(F)cc2)no1` (centres unmarked) [Compound 210, 1-(6-(3-(4-fluorophenyl)-1,2,4-oxadiazol-5-yl)-3-azabicyclo[3.1.1]heptan-3-yl)-2-(3-methylisoxazol-4-yl)ethan-1-one], no less than 25 µM; as for `Cc1nonc1CC(=O)N1CC2CC(C1)C2c1nc(C2CCC(C)(F)CC2)no1` (centres unmarked) [Compound 211, 1-(6-(3-(4-fluoro-4-methylcyclohexyl)-1,2,4-oxadiazol-5-yl)-3-azabicyclo[3.1.1]heptan-3-yl)-2-(4-methyl-1,2,5-oxadiazol-3-yl)ethan-1-one], 3.76 µM.

Take `Cc1nonc1CC(=O)N1CC2CC(C1)C2c1nc(-c2ccc(Cl)c(Cl)c2)no1` (centres unmarked) [Compound 212, 1-(6-(3-(3,4-dichlorophenyl)-1,2,4-oxadiazol-5-yl)-3-azabicyclo[3.1.1]heptan-3-yl)-2-(4-methyl-1,2,5-oxadiazol-3-yl)ethan-1-one]: the concentration giving a half-maximal response (EC50) turned out to be 5.01 µM. Consider `Cc1nonc1CC(=O)N1CC2CC(C1)C2c1nc(C2CCC(F)(F)CC2)no1` (centres unmarked) [Compound 213, 1-(6-(3-(4,4-difluorocyclohexyl)-1,2,4-oxadiazol-5-yl)-3-azabicyclo[3.1.1]heptan-3-yl)-2-(4-methyl-1,2,5-oxadiazol-3-yl)ethan-1-one], for which the concentration for a half-maximal effect (EC50) worked out at 0.488 µM. Next, `Cc1nonc1CC(=O)N1CC2CC(C1)C2c1nc(-c2ccc(F)c(F)c2)no1` (centres unmarked) [Compound 214, 1-(6-(3-(3,4-difluorophenyl)-1,2,4-oxadiazol-5-yl)-3-azabicyclo[3.1.1]heptan-3-yl)-2-(4-methyl-1,2,5-oxadiazol-3-yl)ethan-1-one]: 5.05 µM. Consider `Cc1nonc1CC(=O)N1CC2CC(C1)C2c1nc(-c2ccc(F)cc2)no1` (centres unmarked) [Compound 215, 1-(6-(3-(4-fluorophenyl)-1,2,4-oxadiazol-5-yl)-3-azabicyclo[3.1.1]heptan-3-yl)-2-(4-methyl-1,2,5-oxadiazol-3-yl)ethan-1-one], for which the concentration for a half-maximal effect (EC50) turned out to be 0.132 µM. As for `Cn1ncnc1CC(=O)N1CC2CC(C1)C2c1nc(-c2ccc(Cl)c(Cl)c2)no1` (centres unmarked) [Compound 216, 1-(6-(3-(3,4-dichlorophenyl)-1,2,4-oxadiazol-5-yl)-3-azabicyclo[3.1.1]heptan-3-yl)-2-(1-methyl-1H-1,2,4-triazol-5-yl)ethan-1-one], the figure is greater than 10 µM; as for `Cn1ncnc1CC(=O)N1C[C@H]2C[C@@H](C1)[C@@H]2c1nc(-c2ccc(Cl)c(Cl)c2)no1` [Compound 217, 1-((1R,5S,6r)-6-(3-(3,4-dichlorophenyl)-1,2,4-oxadiazol-5-yl)-3-azabicyclo[3.1.1]heptan-3-yl)-2-(1-methyl-1H-1,2,4-triazol-5-yl)ethan-1-one], 0.1 µM; as for `Cn1ncnc1CC(=O)N1C[C@H]2C[C@@H](C1)[C@H]2c1nc(-c2ccc(Cl)c(Cl)c2)no1` [Compound 218, 1-((1R,5S,6s)-6-(3-(3,4-dichlorophenyl)-1,2,4-oxadiazol-5-yl)-3-azabicyclo[3.1.1]heptan-3-yl)-2-(1-methyl-1H-1,2,4-triazol-5-yl)ethan-1-one], greater than 10 µM.

As for `Cn1ncnc1CC(=O)N1C[C@H]2C[C@@H](C1)[C@H]2c1nc(-c2ccc(Cl)cc2)no1` [Compound 219, 1-((1R,5S,6s)-6-(3-(4-chlorophenyl)-1,2,4-oxadiazol-5-yl)-3-azabicyclo[3.1.1]heptan-3-yl)-2-(1-methyl-1H-1,2,4-triazol-5-yl)ethan-1-one], the EC50 is greater than 10 µM. Turning to `Cn1ncnc1CC(=O)N1C[C@H]2C[C@@H](C1)[C@@H]2c1nc(-c2ccc(Cl)cc2)no1` [Compound 220, 1-((1R,5S,6r)-6-(3-(4-chlorophenyl)-1,2,4-oxadiazol-5-yl)-3-azabicyclo[3.1.1]heptan-3-yl)-2-(1-methyl-1H-1,2,4-triazol-5-yl)ethan-1-one], the concentration for a half-maximal effect (EC50) was determined as 0.14 µM.

For the compound `Cn1ncnc1CC(=O)N1C[C@H]2C[C@@H](C1)[C@@H]2c1nc(-c2ccc(Cl)c(F)c2)no1` [Compound 221, 1-((1R,5S,6r)-6-(3-(4-chloro-3-fluorophenyl)-1,2,4-oxadiazol-5-yl)-3-azabicyclo[3.1.1]heptan-3-yl)-2-(1-methyl-1H-1,2,4-triazol-5-yl)ethan-1-one], the EC50 was determined as 0.1 µM. Consider `Cn1ncnc1CC(=O)N1C[C@H]2C[C@@H](C1)[C@H]2c1nc(-c2ccc(Cl)c(F)c2)no1` [Compound 222, 1-((1R,5S,6s)-6-(3-(4-chloro-3-fluorophenyl)-1,2,4-oxadiazol-5-yl)-3-azabicyclo[3.1.1]heptan-3-yl)-2-(1-methyl-1H-1,2,4-triazol-5-yl)ethan-1-one], for which the EC50 is greater than 10 µM. For the compound `Cn1ncnc1CC(=O)N1C[C@H]2C[C@@H](C1)[C@@H]2c1nc(-c2ccc(Cl)cc2F)no1` [Compound 223, 1-((1R,5S,6r)-6-(3-(4-chloro-2-fluorophenyl)-1,2,4-oxadiazol-5-yl)-3-azabicyclo[3.1.1]heptan-3-yl)-2-(1-methyl-1H-1,2,4-triazol-5-yl)ethan-1-one], the EC50 stood at 0.29 µM. As for `Cn1ncnc1CC(=O)N1C[C@H]2C[C@@H](C1)[C@H]2c1nc(-c2ccc(Cl)cc2F)no1` [Compound 224, 1-((1R,5S,6s)-6-(3-(4-chloro-2-fluorophenyl)-1,2,4-oxadiazol-5-yl)-3-azabicyclo[3.1.1]heptan-3-yl)-2-(1-methyl-1H-1,2,4-triazol-5-yl)ethan-1-one], the figure is greater than 10 µM. As for `Cc1noc(CC(=O)N2CCC3(CC2)CC(c2nc(C4CCCCC4)no2)C3)n1` [Compound 225, 1-(2-(3-cyclohexyl-1,2,4-oxadiazol-5-yl)-7-azaspiro[3.5]nonan-7-yl)-2-(3-methyl-1,2,4-oxadiazol-5-yl)ethan-1-one], the figure is greater than 10 µM; as for `Cc1noc(CC(=O)N2CCC3(CC2)CC(c2nc(-c4ccc(Cl)c(Cl)c4)no2)C3)n1` [Compound 226, 1-(2-(3-(3,4-dichlorophenyl)-1,2,4-oxadiazol-5-yl)-7-azaspiro[3.5]nonan-7-yl)-2-(3-methyl-1,2,4-oxadiazol-5-yl)ethan-1-one], 0.109 µM. `Cc1noc(CC(=O)N2CCC3(CC2)CC(c2nc(C4CCC(F)(F)CC4)no2)C3)n1` [Compound 227, 1-(2-(3-(4,4-difluorocyclohexyl)-1,2,4-oxadiazol-5-yl)-7-azaspiro[3.5]nonan-7-yl)-2-(3-methyl-1,2,4-oxadiazol-5-yl)ethan-1-one]: the EC50 was greater than 10 µM. On to `Cc1noc(CC(=O)N2CCC3(CC2)CC(c2nc(-c4ccc(F)c(F)c4)no2)C3)n1` [Compound 228, 1-(2-(3-(3,4-difluorophenyl)-1,2,4-oxadiazol-5-yl)-7-azaspiro[3.5]nonan-7-yl)-2-(3-methyl-1,2,4-oxadiazol-5-yl)ethan-1-one], for which the EC50 stood at 0.294 µM. As for `Cc1nonc1CC(=O)N1CCC2(CC1)CC(c1nc(C3CCCCC3)no1)C2` [Compound 229, 1-(2-(3-cyclohexyl-1,2,4-oxadiazol-5-yl)-7-azaspiro[3.5]nonan-7-yl)-2-(4-methyl-1,2,5-oxadiazol-3-yl)ethan-1-one], the figure is 3.06 µM. Next, `Cc1nonc1CC(=O)N1CCC2(CC1)CC(c1nc(-c3ccc(Cl)c(Cl)c3)no1)C2` [Compound 230, 1-(2-(3-(3,4-dichlorophenyl)-1,2,4-oxadiazol-5-yl)-7-azaspiro[3.5]nonan-7-yl)-2-(4-methyl-1,2,5-oxadiazol-3-yl)ethan-1-one]: 0.176 µM.

Broadly, the EC50 is the concentration giving half of the maximal effect.
